Numbered stars: 1 amine (or outer) side, 2 acyl side, 3 side chain; on linkers, the order of the positions; unused ones are H or OH. Bridge positions count the residues as written; N and C are the ends. Square brackets hold non-standard residues; d marks the D form. Peptide text beside a SMILES is read from it. * marks the point of attachment. C20 diacid = O=C(O)CCCCCCCCCCCCCCCCCCC(=O)*; γGlu = O=C(O)[C@H](CCC(=O)[*:2])N[*:1]; NMeI = CC[C@H](C)[C@H](NC)C(=O)O; Sar = CNCC(=O)O
How the values were obtained:
[1] = molecular target: T1, human calcitonin receptor (hCTR2) (Homo sapiens, UniProt P30988); experiment: hCTR2 assay: induction of cAMP (AlphaScreen cAMP Assay kit) in COS7 cells expressing hCTR2; assay type: cell-based
T1 construct: expressed in transfected cells
T1 sequence (P30988 25-474): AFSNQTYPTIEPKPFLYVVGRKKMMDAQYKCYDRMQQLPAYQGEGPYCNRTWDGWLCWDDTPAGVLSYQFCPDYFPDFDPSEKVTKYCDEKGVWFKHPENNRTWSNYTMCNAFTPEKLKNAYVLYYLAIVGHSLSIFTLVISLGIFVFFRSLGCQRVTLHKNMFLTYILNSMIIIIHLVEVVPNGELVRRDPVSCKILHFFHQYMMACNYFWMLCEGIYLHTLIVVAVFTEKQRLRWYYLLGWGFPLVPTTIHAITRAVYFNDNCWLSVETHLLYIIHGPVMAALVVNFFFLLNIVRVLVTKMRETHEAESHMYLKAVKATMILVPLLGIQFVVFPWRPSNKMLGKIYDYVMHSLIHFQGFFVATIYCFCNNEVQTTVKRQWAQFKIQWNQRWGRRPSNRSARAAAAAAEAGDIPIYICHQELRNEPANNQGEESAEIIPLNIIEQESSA
Outline: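 Functional agonism is measured as cAMP accumulation in a COS7 line stably transfected with hCTR2, lacking endogenous RAMPs. Peptides act for 15 min at 37° C with IBMX present, and curves are fitted with a 4-parameter logistic model.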

[2] = molecular target: T2, human amylin receptor 3 (hAMYR3) consisting of hCTR2 co-expressed with human Receptor Activity Modifying Protein 3 (hRAMP3) (Homo sapiens, UniProt O60896+P30988); experiment: hAMYR3 assay: induction of cAMP (AlphaScreen cAMP Assay kit) in COS7 cells expressing hAMYR3; assay type: cell-based
T2 construct: expressed in transfected cells
T2 sequence (P30988 25-474): T1 sequence (P30988 25-474)
T2 sequence (O60896 24-148 partner): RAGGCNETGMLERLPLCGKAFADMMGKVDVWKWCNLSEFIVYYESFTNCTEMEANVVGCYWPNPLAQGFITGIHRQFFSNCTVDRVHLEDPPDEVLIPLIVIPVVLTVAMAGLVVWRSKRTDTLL
Outline: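 Stable COS7 clone co-expressing hCTR2 and hRAMP3, stimulated 15 min at 37° C with increasing peptide in Tyrode buffer pH 7.4 with 100 µM IBMX and 0.1% casein. cAMP measured by AlphaScreen after lysis; EC50 and % efficacy versus pramlintide from 4PL fit.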

[3] = Solubility assessment (turbidity absorbance at 325 nm); assay type: physicochemical; details: stock 2 mg/ml diluted 1:1, ambient temperature (typically 25°C), n=1; for Solubility, Acetate buffer pH 4: 100 mM acetate buffer pH 4.0; for Solubility, Acetate buffer pH 5: 100 mM acetate buffer pH 5.0; for Solubility, Histidine buffer pH 6: 100 mM histidine buffer pH 6.0; for Solubility, Histidine buffer pH 7: 100 mM histidine buffer pH 7.0; for Solubility, Phosphate buffer pH 6: 100 mM phosphate buffer pH 6.0; for Solubility, Phosphate buffer pH 7: 100 mM phosphate buffer pH 7.0; for Solubility, Phosphate buffer pH 7.5: 100 mM phosphate buffer pH7.5
Outline: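 Stock 2 mg/ml peptide, H2O/HCl pH 2.5; 1:1 into 100 mM buffers: acetate pH 4.0/5.0, His pH 6.0/7.0, phosphate pH 6.0/7.0/7.5. A280 + A325, ~25°C, n=1. Soluble ≥ 1 mg/ml if A325 ≤ 0.02.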

SMILES	EC50 [1]	EC50 [2]	Solubility, Acetate buffer pH 4 [3]	Solubility, Acetate buffer pH 5 [3]	Solubility, Histidine buffer pH 6 [3]	Solubility, Histidine buffer pH 7 [3]	Solubility, Phosphate buffer pH 6 [3]	Solubility, Phosphate buffer pH 7 [3]	Solubility, Phosphate buffer pH 7.5 [3]
CC[C@H](C)[C@@H](C(=O)N[C@@H](CC(C)C)C(=O)N[C@@H](CO)C(=O)N[C@@H](CO)C(=O)N[C@H](C(=O)N[C@@H](CC(N)=O)C(=O)N[C@H](C(=O)NCC(=O)N[C@@H](CO)C(=O)N[C@@H](CC(N)=O)C(=O)N[C@H](C(=O)N1CCC[C@H]1C(N)=O)[C@@H](C)O)C(C)C)[C@@H](C)O)N(C)C(=O)[C@H](C)NC(=O)CN(C)C(=O)[C@H](Cc1ccccc1)NC(=O)[C@H](CC(N)=O)NC(=O)[C@H](CC(N)=O)NC(=O)[C@H](CO)NC(=O)[C@H](CO)NC(=O)[C@H](CCCNC(=N)N)NC(=O)[C@H](Cc1c[nH]cn1)NC(=O)[C@H](CC(C)C)NC(=O)[C@H](Cc1ccccc1)NC(=O)[C@H](CCC(=O)O)NC(=O)[C@H](C)NC(=O)[C@H](CC(C)C)NC(=O)[C@H](CCCNC(=N)N)NC(=O)[C@H](CCC(N)=O)NC(=O)[C@@H](NC(=O)[C@H](C)NC(=O)[C@@H]1CSSC[C@H](NC(=O)[C@H](CCCNC(=N)N)NC(=O)[C@H](CCCCN)NC(=O)CC[C@H](NC(=O)CCCCCCCCCCCCCCCCCCC(=O)O)C(=O)O)C(=O)N[C@@H](CC(N)=O)C(=O)N[C@@H]([C@@H](C)O)C(=O)N[C@@H](C)C(=O)N[C@@H]([C@@H](C)O)C(=O)N1)[C@@H](C)O [Compound 84, [19CD]-isoGlu-KRC()NTATC()ATQRLAEFLHRSSNNF-Gly(Me)-A-Ile(Me)-LSSTNVGSNTP-NH2] ({C20 diacid-γGlu}-KRCNTATCATQRLAEFLHRSSNNF[Sar]A[NMeI]LSSTNVGSNTP-NH2; disulfide 3-8)	0.11 nM	0.1 nM	SS (SS indicates solubility ≥ 1mg/ml)	SS (SS indicates solubility ≥ 1mg/ml)	SS (SS indicates solubility ≥ 1mg/ml)	SS (SS indicates solubility ≥ 1mg/ml)	SS (SS indicates solubility ≥ 1mg/ml)	SS (SS indicates solubility ≥ 1mg/ml)	SS (SS indicates solubility ≥ 1mg/ml)
CC[C@H](C)[C@@H](C(=O)N[C@@H](CC(C)C)C(=O)N[C@@H](CO)C(=O)N[C@@H](CO)C(=O)N[C@H](C(=O)N[C@@H](CC(N)=O)C(=O)N[C@H](C(=O)NCC(=O)N[C@@H](CO)C(=O)N[C@@H](CC(N)=O)C(=O)N[C@H](C(=O)NCC(N)=O)[C@@H](C)O)C(C)C)[C@@H](C)O)N(C)C(=O)[C@H](C)NC(=O)CN(C)C(=O)[C@H](Cc1ccccc1)NC(=O)[C@H](CC(N)=O)NC(=O)[C@H](CC(N)=O)NC(=O)[C@H](CO)NC(=O)[C@H](CO)NC(=O)[C@H](CCCNC(=N)N)NC(=O)[C@H](Cc1c[nH]cn1)NC(=O)[C@H](CC(C)C)NC(=O)[C@H](Cc1ccccc1)NC(=O)[C@H](CCC(=O)O)NC(=O)[C@H](C)NC(=O)[C@H](CC(C)C)NC(=O)[C@H](CCCNC(=N)N)NC(=O)[C@H](CCC(N)=O)NC(=O)[C@@H](NC(=O)[C@H](C)NC(=O)[C@@H]1CSSC[C@H](NC(=O)[C@H](CCCNC(=N)N)NC(=O)CC[C@H](NC(=O)CCCCCCCCCCCCCCCCCCC(=O)O)C(=O)O)C(=O)N[C@@H](CC(N)=O)C(=O)N[C@@H]([C@@H](C)O)C(=O)N[C@@H](C)C(=O)N[C@@H]([C@@H](C)O)C(=O)N1)[C@@H](C)O [Compound 96, [19CD]-isoGlu-RC()NTATC()ATQRLAEFLHRSSNNF-Gly(Me)-A-Ile(Me)-LSSTNVGSNTG-NH2] ({C20 diacid-γGlu}-RCNTATCATQRLAEFLHRSSNNF[Sar]A[NMeI]LSSTNVGSNTG-NH2; disulfide 2-7)	0.34 nM	5.6 nM	SS (SS indicates solubility ≥ 1mg/ml)	SS (SS indicates solubility ≥ 1mg/ml)	SS (SS indicates solubility ≥ 1mg/ml)	SS (SS indicates solubility ≥ 1mg/ml)	SS (SS indicates solubility ≥ 1mg/ml)	SS (SS indicates solubility ≥ 1mg/ml)	SS (SS indicates solubility ≥ 1mg/ml)
CC[C@H](C)[C@@H](C(=O)N[C@@H](CC(C)C)C(=O)N[C@@H](CO)C(=O)N[C@@H](CO)C(=O)N[C@H](C(=O)N[C@@H](CC(N)=O)C(=O)N[C@H](C(=O)NCC(=O)N[C@@H](CO)C(=O)N[C@@H](CC(N)=O)C(=O)N[C@H](C(=O)N[C@@H](C)C(N)=O)[C@@H](C)O)C(C)C)[C@@H](C)O)N(C)C(=O)[C@H](C)NC(=O)CN(C)C(=O)[C@H](Cc1ccccc1)NC(=O)[C@H](CC(N)=O)NC(=O)[C@H](CC(N)=O)NC(=O)[C@H](CO)NC(=O)[C@H](CO)NC(=O)[C@H](CCCNC(=N)N)NC(=O)[C@H](Cc1c[nH]cn1)NC(=O)[C@H](CC(C)C)NC(=O)[C@H](Cc1ccccc1)NC(=O)[C@H](CCC(=O)O)NC(=O)[C@H](C)NC(=O)[C@H](CC(C)C)NC(=O)[C@H](CCCNC(=N)N)NC(=O)[C@H](CCC(N)=O)NC(=O)[C@@H](NC(=O)[C@H](C)NC(=O)[C@@H]1CSSC[C@H](NC(=O)[C@H](CCCNC(=N)N)NC(=O)CC[C@H](NC(=O)CCCCCCCCCCCCCCCCCCC(=O)O)C(=O)O)C(=O)N[C@@H](CC(N)=O)C(=O)N[C@@H]([C@@H](C)O)C(=O)N[C@@H](C)C(=O)N[C@@H]([C@@H](C)O)C(=O)N1)[C@@H](C)O [Compound 97, [19CD]-isoGlu-RC()NTATC()ATQRLAEFLHRSSNNF-Gly(Me)-A-Ile(Me)-LSSTNVGSNTA-NH2] ({C20 diacid-γGlu}-RCNTATCATQRLAEFLHRSSNNF[Sar]A[NMeI]LSSTNVGSNTA-NH2; disulfide 2-7)	0.33 nM	0.68 nM	SS (SS indicates solubility ≥ 1mg/ml)	SS (SS indicates solubility ≥ 1mg/ml)	SS (SS indicates solubility ≥ 1mg/ml)	SS (SS indicates solubility ≥ 1mg/ml)	SS (SS indicates solubility ≥ 1mg/ml)	SS (SS indicates solubility ≥ 1mg/ml)	SS (SS indicates solubility ≥ 1mg/ml)
CC[C@H](C)[C@@H](C(=O)N[C@@H](CC(C)C)C(=O)N[C@@H](CO)C(=O)N[C@@H](CO)C(=O)N[C@H](C(=O)N[C@@H](CC(N)=O)C(=O)N[C@H](C(=O)NCC(=O)N[C@@H](CO)C(=O)N[C@@H](CC(N)=O)C(=O)N[C@H](C(=O)N[C@H](C(N)=O)C(C)C)[C@@H](C)O)C(C)C)[C@@H](C)O)N(C)C(=O)[C@H](C)NC(=O)CN(C)C(=O)[C@H](Cc1ccccc1)NC(=O)[C@H](CC(N)=O)NC(=O)[C@H](CC(N)=O)NC(=O)[C@H](CO)NC(=O)[C@H](CO)NC(=O)[C@H](CCCNC(=N)N)NC(=O)[C@H](Cc1c[nH]cn1)NC(=O)[C@H](CC(C)C)NC(=O)[C@H](Cc1ccccc1)NC(=O)[C@H](CCC(=O)O)NC(=O)[C@H](C)NC(=O)[C@H](CC(C)C)NC(=O)[C@H](CCCNC(=N)N)NC(=O)[C@H](CCC(N)=O)NC(=O)[C@@H](NC(=O)[C@H](C)NC(=O)[C@@H]1CSSC[C@H](NC(=O)[C@H](CCCNC(=N)N)NC(=O)CC[C@H](NC(=O)CCCCCCCCCCCCCCCCCCC(=O)O)C(=O)O)C(=O)N[C@@H](CC(N)=O)C(=O)N[C@@H]([C@@H](C)O)C(=O)N[C@@H](C)C(=O)N[C@@H]([C@@H](C)O)C(=O)N1)[C@@H](C)O [Compound 98, [19CD]-isoGlu-RC()NTATC()ATQRLAEFLHRSSNNF-Gly(Me)-A-Ile(Me)-LSSTNVGSNTV-NH2] ({C20 diacid-γGlu}-RCNTATCATQRLAEFLHRSSNNF[Sar]A[NMeI]LSSTNVGSNTV-NH2; disulfide 2-7)	0.35 nM	1.7 nM	SS (SS indicates solubility ≥ 1mg/ml)	SS (SS indicates solubility ≥ 1mg/ml)	SS (SS indicates solubility ≥ 1mg/ml)	SS (SS indicates solubility ≥ 1mg/ml)	II (II indicates solubility ≤ 1 mg/ml)	SS (SS indicates solubility ≥ 1mg/ml)	SS (SS indicates solubility ≥ 1mg/ml)

Source: patent EP3046573B1, “AMYLIN ANALOGUES” (Zealand Pharma A/S, priority 2013, dated 2015)
